Assay results taken from US20250049806A1, “PHARMACEUTICAL COMPOSITION FOR PROVIDING TREATMENT FOR OR PREVENTING ALPORT SYNDROME” (UBE Corporation, priority 2021, published 2025).

Test: Transcellular transport test using Caco2 cell
Format: in vitro ADME
Conditions: human, Caco-2, apical-to-basolateral (A-to-B), pH=7.4, 10 µM compound
Description: Caco2 cells (purchased from ATCC) were cultured in DMEM medium (Thermo Fisher Scientific, Inc., 11965) containing 10% FBS (Thermo Fisher Scientific, Inc., 10082) and 1% penicillin/streptomycin/amphotericin B (Thermo Fisher Scientific, Inc., 15240). A transcellular transport test was carried out in accordance with MultiScreen Caco2 Drug Transport Assembly in a 96-well system (Application Note AN1727EN, MultiScreen Caco-2 Assay System, Merck) by partially modifying it. The Caco2 cells were inoculated at a cell density of 4×10^4 cells/well onto a micropore polycarbonate insert of a 96-well plate (Merck, Millcell-96 culture insert plate 0.4 μm pore size, well membrane area=0.11 cm^2, PSHT004S5) and cultured for 20 to 22 days, and the resulting monolayer was used in the transcellular transport test. The medium of the inoculated cells was replaced with a fresh one every 3 to 4 days.
Apical-to-basolateral (A-to-B) transport in the Caco2 cell monolayer membrane was performed by using HBSS (Thermo Fisher Scientific, Inc., 14025) medium (pH=7.4) containing 20 mM HEPES (Thermo Fisher Scientific, Inc., 15630), and adding HEPES-containing HBSS medium containing 10 µM compound (a 10 mM solution of the compound in DMSO was added at a 1000-fold dilution; final DMSO concentration: 0.1%) at 75 μL/well to the apical side and HEPES-containing HBSS medium supplemented with no compound at 250 μL/well to the basolateral side, followed by culture at 37° C. for 90 minutes. After culture, a 100 μL aliquot was collected from the basolateral side, and the concentration of a permeated compound was measured by LC-MS/MS under measurement conditions mentioned later. Papp (apparent permeability; cm/sec) was calculated from the determined concentration. Papp was determined according to the expression given below by calculating the slope (dA/dt; nmol/sec) of a straight line drawn between two points 0 minutes and zero amount of the compound in a graph plotted with an assay time (90 min) on the abscissa against the amount of the compound in the solution on the permeated side on the ordinate. As for an assay concentration, the concentration in the compound in the HEPES-containing HBSS medium containing the added compound was measured by UV-HPLC under measurement conditions mentioned later.
C0: assay concentration, S: plate membrane area=0.11 cm^2
• LC: LC20 or LC30 HPLC system manufactured by Shimadzu Corp. • Column: Phenomenex Kinetex C18 (50 mm×2.1 mm, 2.6 μm) • Column temperature: 40° C. • Flow rate: 0.3 mL/min • Mobile phase A: 0.1% aqueous formic acid solution • Mobile phase B: 0.1% formic acid, 50% acetonitrile/methanol mixed solution • Gradient: 0-2 min; A/B=90/10 to 10/90, 2-3 min; A/B=10/90, 3-3.01 min; A/B=10/90 to 90/10 • MS: Q-Trap3200 manufactured by AB Sciex Pte. Ltd. • Ionization: ESI • Mode: Positive
• LC: LC20 or LC30 HPLC system manufactured by Shimadzu Corp. • Column: Phenomenex Kinetex C18 (100 mm×2.1 mm, 2.6 μm) • Column temperature: 40° C. • Flow rate: 0.25 mL/min • Mobile phase A: 0.1% aqueous formic acid solution • Mobile phase B: 0.1% formic acid, 50% acetonitrile/methanol mixed solution • Gradient: 0-3 min; A/B=90/10, 3-11 min; A/B=90/10 to 5/95, 11-15 min; A/B=5/95, 15-15.1 min; A/B=5/95 to 90/10 • UV detector: photodiode array detector
A: Papp>1×10^−6 (cm/sec), B: 1×10^−6 (cm/sec)≥Papp>5×10^−7 (cm/sec), C: 5×10^−7 (cm/sec)≥Papp>1×10^−7 (cm/sec), or D: Papp≤1×10^−7 (cm/sec).

Papp A→B at 90 min, 10 µM [×10⁻⁶ cm/s] | SMILES
> 1 | O=C(O)C[C@H](NC(=O)CNC(=O)c1cc(NC2=NCC(F)CN2)c2cn[nH]c2c1)c1cccc(C2CC2)c1 (stereo partly drawn) [39-(b), (3S)-3-(3-cyclopropylphenyl)-3-(2-(4-((5-fluoro-1,4,5,6-tetrahydropyrimidin-2-yl)amino)-1H-indazole-6-carboxamido)acetamido)propanoic acid]
> 1 | O=C(O)C[C@H](NC(=O)CNC(=O)c1cc(NC2=NCC(F)CN2)c2cn[nH]c2c1)c1cccc(-n2cccn2)c1 (stereo partly drawn) [43-(b), (3S)-3-(3-(1H-pyrazol-1-yl)phenyl)-3-(2-(4-((5-fluoro-1,4,5,6-tetrahydropyrimidin-2-yl)amino)-1H-indazole-6-carboxamido)acetamido)propanoic acid]
> 1 | O=C(O)C[C@H](NC(=O)CNC(=O)c1cc(NC2=NCC(O)CN2)c2cn[nH]c2c1)c1cc(Cl)cc(C(F)(F)F)c1 (stereo partly drawn) [50-(b), (3S)-3-(3-chloro-5-(trifluoromethyl)phenyl)-3-(2-(4-((5-hydroxy-1,4,5,6-tetrahydropyrimidin-2-yl)amino)-1H-indazole-6-carboxamido)acetamido)propanoic acid]
0.1 to 0.5 | O=C(O)C[C@H](NC(=O)CNC(=O)c1cc(NC2=NCC(F)CN2)cc2[nH]ncc12)c1cc(Cl)cc(C(F)(F)F)c1 (stereo partly drawn) [52-(b), (3S)-3-(3-chloro-5-(trifluoromethyl)phenyl)-3-(2-(6-((5-fluoro-1,4,5,6-tetrahydropyrimidin-2-yl)amino)-1H-indazole-4-carboxamido)acetamido)propanoic acid]
> 1 | O=C(O)C[C@H](NC(=O)CNC(=O)c1cc(NC2=NCC(F)CN2)c2cn[nH]c2c1)c1cccc(Br)c1 (stereo partly drawn) [42-(b), (3S)-3-(3-bromophenyl)-3-(2-(4-((5-fluoro-1,4,5,6-tetrahydropyrimidin-2-yl)amino)-1H-indazole-6-carboxamido)acetamido)propanoic acid]
> 1 | O=C(O)C[C@H](NC(=O)CNC(=O)c1cc(NC2=NCC(F)CN2)c2cn[nH]c2c1)c1cccc(C(F)(F)F)c1 (stereo partly drawn) [35-(b), (3S)-3-(2-(4-((5-fluoro-1,4,5,6-tetrahydropyrimidin-2-yl)amino)-1H-indazole-6-carboxamido)acetamido)-3-(3-(trifluoromethyl)phenyl)propanoic acid]
> 1 | O=C(O)C[C@H](NC(=O)CNC(=O)c1cc(NC2=NCC(F)CN2)c2cn[nH]c2c1)c1ccc(F)c(OC(F)(F)F)c1 (stereo partly drawn) [34-(b), (3S)-3-(2-(4-((5-fluoro-1,4,5,6-tetrahydropyrimidin-2-yl)amino)-1H-indazole-6-carboxamido)acetamido)-3-(4-fluoro-3-(trifluoromethoxy)phenyl)propanoic acid]
> 1 | O=C(O)C[C@H](NC(=O)CNC(=O)c1cc(NC2=NCC(F)CN2)c2cn[nH]c2c1)c1cc(OC(F)F)ccc1F (stereo partly drawn) [28-(b), (3S)-3-(5-(difluoromethoxy)-2-fluorophenyl)-3-(2-(4-((5-fluoro-1,4,5,6-tetrahydropyrimidin-2-yl)amino)-1H-indazole-6-carboxamido)acetamido)propanoic acid]

The remaining lines, values behind:

SMILES | Papp A→B at 90 min, 10 µM [×10⁻⁶ cm/s]
COc1cc([C@H](CC(=O)O)NC(=O)CNC(=O)c2cc(NC3=NCC(F)CN3)c3cn[nH]c3c2)cc(C(F)(F)F)c1 (stereo partly drawn) [5-(b), (3S)-3-(2-(4-((5-fluoro-1,4,5,6-tetrahydropyrimidin-2-yl)amino)-1H-indazole-6-carboxamido)acetamido)-3-(3-methoxy-5-(trifluoromethyl)phenyl)propanoic acid] | 0.5 to 1
O=C(O)C[C@H](NC(=O)CNC(=O)c1cc(NC2=NCC(F)CN2)c2cn[nH]c2c1)c1cc(Cl)cc(Cl)c1 (stereo partly drawn) [17-(b), (3S)-3-(3,5-dichlorophenyl)-3-(2-(4-((5-fluoro-1,4,5,6-tetrahydropyrimidin-2-yl)amino)-1H-indazole-6-carboxamido)acetamido)propanoic acid] | > 1
Cc1cc([C@H](CC(=O)O)NC(=O)CNC(=O)c2cc(NC3=NCC(F)CN3)c3cn[nH]c3c2)cc(C(F)(F)F)c1 (stereo partly drawn) [4-(b), (3S)-3-(2-(4-((5-fluoro-1,4,5,6-tetrahydropyrimidin-2-yl)amino)-1H-indazole-6-carboxamido)acetamido)-3-(3-methyl-5-(trifluoromethyl)phenyl)propanoic acid] | > 1
O=C(O)C[C@H](NC(=O)CNC(=O)c1cc(NC2=NCC(F)CN2)c2cn[nH]c2c1)c1cc(Cl)cc(Br)c1 (stereo partly drawn) [18-(b), (3S)-3-(3-bromo-5-chlorophenyl)-3-(2-(4-((5-fluoro-1,4,5,6-tetrahydropyrimidin-2-yl)amino)-1H-indazole-6-carboxamido)acetamido)propanoic acid] | > 1
O=C(O)C[C@H](NC(=O)CNC(=O)c1cc(NC2=NCC(F)CN2)c2cn[nH]c2c1)c1cc(Cl)cc(OC(F)F)c1 (stereo partly drawn) [25-(b), (3S)-3-(3-chloro-5-(difluoromethoxy)phenyl)-3-(2-(4-((5-fluoro-1,4,5,6-tetrahydropyrimidin-2-yl)amino)-1H-indazole-6-carboxamido)acetamido)propanoic acid] | > 1
O=C(O)C[C@H](NC(=O)CNC(=O)c1cc(NC2=NCC(F)CN2)c2cn[nH]c2c1)c1cc(Br)cc(OC(F)F)c1 (stereo partly drawn) [26-(b), (3S)-3-(3-bromo-5-(difluoromethoxy)phenyl)-3-(2-(4-((5-fluoro-1,4,5,6-tetrahydropyrimidin-2-yl)amino)-1H-indazole-6-carboxamido)acetamido)propanoic acid] | > 1
O=C(O)C[C@H](NC(=O)CNC(=O)c1cc(NC2=NCC(F)CN2)c2cn[nH]c2c1)c1cc(F)cc(C(F)(F)F)c1 (stereo partly drawn) [6-(b), (3S)-3-(2-(4-((5-fluoro-1,4,5,6-tetrahydropyrimidin-2-yl)amino)-1H-indazole-6-carboxamido)acetamido)-3-(3-fluoro-5-(trifluoromethyl)phenyl)propanoic acid] | > 1
Cc1ccc([C@H](CC(=O)O)NC(=O)CNC(=O)c2cc(NC3=NCC(F)CN3)c3cn[nH]c3c2)cc1C(F)(F)F (stereo partly drawn) [14-(b), (3S)-3-(2-(4-((5-fluoro-1,4,5,6-tetrahydropyrimidin-2-yl)amino)-1H-indazole-6-carboxamido)acetamido)-3-(4-methyl-3-(trifluoromethyl)phenyl)propanoic acid] | > 1
COc1ccc([C@H](CC(=O)O)NC(=O)CNC(=O)c2cc(NC3=NCC(F)CN3)c3cn[nH]c3c2)cc1Br (stereo partly drawn) [16-(b), (3S)-3-(3-bromo-4-methoxyphenyl)-3-(2-(4-((5-fluoro-1,4,5,6-tetrahydropyrimidin-2-yl)amino)-1H-indazole-6-carboxamido)acetamido)propanoic acid] | > 1
